Measured values taken from US20250144224A1, “ABL INHIBITORS AND USES THEREOF” (The Regents of the University of California, priority 2021, published 2025).

Legend:
[1] = Parallel artificial membrane permeability assay (PAMPA); format: in vitro ADME; details: 100 μM in PBS, 5 h, LC-MS
Description: PAMPA was performed by Quintara Discovery using the BioCoat Pre-coated PAMPA Plate System (Corning) as described previously (15) and based on manufacturer's recommendations. All compounds were assessed at 100 μM in PBS. Compound concentrations in donor and acceptor compartments were quantified using liquid chromatography-mass spectrometry (LC-MS) 5 h following compound addition into the donor compartment.

[2] = test system: K562 CRISPRi or CRISPRa cells with IFITM1-3 expression modulation; test: Chemical-genetic interaction mapping (IC50 shift in cell viability assay); format: cell-based, human; details: IFITM1-3 knockdown (CRISPRi) or overexpression (CRISPRa), 72 h
Description: Cell viability was assessed by CellTiter-Glo (CTG) Luminescent Cell Viability Assay (Promega). Cells were equilibrated to room temperature before the addition of diluted (1:4 CTG reagent:PBS) CTG reagent (100 μL per well). Plates were agitated on an orbital shaker and luminescence signal was measured on a SpectraMax M5 (Molecular Devices) or Spark (Tecan) plate reader. Repeated measurements of luminescence were performed as technical replicates to determine incubation times optimal for signal-to-noise. Luminescence measurements were normalized to DMSO-treated values to determine relative cell viability.
Cells treated with compounds were evaluated for viability as described herein. […] The same top concentrations were used in K562 CRISPRa cells with the exception of HJB97 (1 μM), JQ1 (1 μM), MZ1 (1 μM), and dBET6 (100 nM). Using Prism 9 (GraphPad Software), a 4-parameter nonlinear regression model was fit to the viability data to determine IC50 values. IC50 values of sgRNA+ cells were normalized to that of non-sgRNA expressing cells to determine sensitivity/resistance chemical-genetic interactions mapped in FIG. 4B.

[3] = test system: intracellular BCR-ABL1 in K562 CRISPRi/a cells; test: Immunoblots of pharmacodynamic markers of BCR-ABL1 inhibition; format: cell-based, human; details: nanomolar concentrations (10 nM)
Description: FIGS. 3A-3F. […] Data represent two biological replicates. […] Data represent three biological replicates.
Cells (500,000 cells in 2 mL per well) were seeded into 6-well plates and incubated at 37° C. overnight. Following treatment with compounds at the concentrations and times indicated, cells were placed over ice, transferred to 2 mL microcentrifuge tubes, and pelleted at 500 g, 4° C. The pelleted cells were washed twice with ice-cold phosphate-buffered saline (PBS) and stored at −80° C. […] Proteins were separated by polyacrylamide gel electrophoresis (PAGE), transferred to 0.2 μm pore size nitrocellulose membranes (Bio-Rad) and blocked using blocking buffer [5% bovine serum albumin (Millipore) in Tris-buffered saline, 0.1% Tween 20 (TBST) supplemented with 0.02% NaN3]. Membranes were probed with primary antibodies against FKBP12 (ab58072) from Abcam and p-ABL1^Y245 (2861), p-CRKL^Y207 (3181), IFITM1 (13126), IFITM2 (13530), IFITM3 (59212), p-STAT5^Y694 (4322), and Tubulin (3873) from Cell Signaling Technology diluted (1:1000) in blocking buffer. After primary antibody incubation, membranes were treated with IRDye secondary antibodies (LI-COR Biosciences) according to manufacturer's recommendations and scanned on an Odyssey Imaging System (LI-COR Biosciences). Immunoblot scans were processed using ImageStudioLite 5.2.5 (LI-COR).

[4] = test system: K562 cells (wild-type); test: CellTiter-Glo cell viability, K562 wild-type; details: Homo sapiens, K562, 72 h, read-out: EC50 (nM) CTG K562 wt
Description: (§1) Compounds were tested for ability to inhibit cell growth. K562 cells (wild-type or CRISPR base-edited Bcr-Abl T315I) were plated at 1000 cells/well in 96-well plates and treated with the indicated compounds at the indicated concentrations for three days in triplicate, then tested for cell viability by the CellTiter-Glo 2.0 assay (Promega).
(§2) Compounds were tested for ability to inhibit cell growth. K562 cells (wild-type or CRISPR base-edited Bcr-Abl T315I) were plated at 1000 cells/well in 96-well plates and treated with the indicated compounds at the indicated concentrations for three days in triplicate, then tested for cell viability by the CellTiter-Glo 2.0 assay (Promega). […] Compounds were tested for ability to inhibit cell growth. K562 cells (wild-type or CRISPR base-edited Bcr-Abl T315I) were plated at 1000 cells/well in 96-well plates and treated with the indicated compounds at the indicated concentrations for three days in triplicate, then tested for cell viability by the CellTiter-Glo 2.0 assay (Promega).
(§3) Cells were treated with the indicated concentrations of compound in 9-point 3-fold dilution series (100 μL final volume per well) and incubated at 37° C. for 72 h. Cell viability was assessed by CellTiter-Glo (CTG) Luminescent Cell Viability Assay (Promega). Cells were equilibrated to room temperature before the addition of diluted (1:4 CTG reagent:PBS) CTG reagent (100 μL per well). Plates were agitated on an orbital shaker and luminescence signal was measured on a SpectraMax M5 (Molecular Devices) or Spark (Tecan) plate reader. Repeated measurements of luminescence were performed as technical replicates to determine incubation times optimal for signal-to-noise. Luminescence measurements were normalized to DMSO-treated values to determine relative cell viability.

[5] = test system: K562 cells (CRISPR base-edited Bcr-Abl T315I); test: CellTiter-Glo cell viability, K562 Bcr-Abl T315I; details: Homo sapiens, K562, 72 h, read-out: EC50 (nM) CTG K562 T315I
Description: as §1, §2, §3

[6] = test system: kinases labeled by XO44 in K562 CRISPRi cells; test: Live cell kinase occupancy profiling with XO44 probe; details: 100 nM, 4 h pretreatment, then XO44, live K562 CRISPRi cells
[7] = biological target: T1, ABL1 kinase domain (Homo sapiens, UniProt P00519); test: ATP-site kinase pulldown (KdELECT competition binding); details: 100-fold molar excess asciminib
T1 sequence (P00519 242-493 limits assumed): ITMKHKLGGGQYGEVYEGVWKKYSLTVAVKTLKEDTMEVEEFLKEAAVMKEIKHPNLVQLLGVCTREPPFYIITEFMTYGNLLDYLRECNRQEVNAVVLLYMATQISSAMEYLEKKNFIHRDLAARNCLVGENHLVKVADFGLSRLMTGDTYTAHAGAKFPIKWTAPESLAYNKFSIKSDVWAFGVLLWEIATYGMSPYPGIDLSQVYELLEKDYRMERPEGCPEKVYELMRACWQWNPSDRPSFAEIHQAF
Description: ATP-site competition binding assay (KdELECT) was performed by Eurofins DiscoverX as described previously (11). Compounds were assessed in 11-point 3-fold dilution series and compound mixtures were analogously diluted from a DMSO stock containing the 2 compounds at the ratio indicated. Pulldown measurements of DNA-tagged kinase by quantitative polymerase chain reaction (qPCR) were normalized to DMSO-treated values to determine relative ATP-site pulldown. A 4-parameter nonlinear regression model was fit to the data using Prism 9 (GraphPad Software) with the top parameter constrained to 100%.

## Cc1nc(Nc2ncc(C(=O)Nc3c(C)cccc3Cl)s2)cc(N2CCN(C(=O)CCOCCOCCOCCOCCOCCOCCOCCOCCOCCOCCOCCOCCNC(=O)C3CCN(c4ncc(C(=O)Nc5ccc(OC(F)(F)Cl)cc5)cc4-c4ccn[nH]4)CC3)CC2)n1 [DasatiLink-1]
[1]
  artificial membrane permeability by PAMPA: impermeable
[2]
  IFITM dependency of potency (IC50 shift in cell viability assay): validated the IFITM dependency
[3]
  time required for maximal inhibition of target: multiple hours
[4]
  EC50: 2.47 nM
[5]
  EC50: > 300 nM
[6]
  intracellular kinase occupancy (kinome-wide selectivity): observable intracellular occupancy of only a single kinase
[7]
  effect of excess asciminib on ability to occupy the ATP-site: impaired the ability of DasatiLink-1 to occupy the ATP-site
